Test results from patent publication US11014929B2, “Pyrazolopyrimidine compounds and uses thereof” (Incyte Corporation, priority 2016, dated 2021).

Target: HPK1 (Homo sapiens (Human), UniProt Q92918)
Assay: HPK1 Kinase Binding Assay
Conditions: LanthaScreen tracer 222 binding, active HPK1, one hour incubation at 25° C.
Procedure: A stock solution of 1 mM test compound was prepared in DMSO. The compound plate was prepared by 3-fold and 11-point serial dilutions. 0.1 μL of the compound in DMSO was transferred from the compound plate to the white 384 well polystyrene plates. The assay buffer contained 50 mM HEPES, pH 7.5, 0.01% Tween-20, 5 mM MgCl2, 0.01% BSA, and 5 mM DTT. 5 μl of 4 nM active HPK1 (SignalChem M23-11G) prepared in the buffer was added to the plate. The enzyme concentration given was based on the given stock concentration reported by the vender. 5 μl of 18 nM tracer 222 (ThermoFisher PV6121) and 4 nM LanthaScreen Eu-Anti GST antibody (ThermoFisher PV5595) were added. After one hour incubation at 25° C., the plates were read on a PHERAstar FS plate reader (BMG Labtech). Ki values were determined.

Chain of HPK1 (Q92918 1-346): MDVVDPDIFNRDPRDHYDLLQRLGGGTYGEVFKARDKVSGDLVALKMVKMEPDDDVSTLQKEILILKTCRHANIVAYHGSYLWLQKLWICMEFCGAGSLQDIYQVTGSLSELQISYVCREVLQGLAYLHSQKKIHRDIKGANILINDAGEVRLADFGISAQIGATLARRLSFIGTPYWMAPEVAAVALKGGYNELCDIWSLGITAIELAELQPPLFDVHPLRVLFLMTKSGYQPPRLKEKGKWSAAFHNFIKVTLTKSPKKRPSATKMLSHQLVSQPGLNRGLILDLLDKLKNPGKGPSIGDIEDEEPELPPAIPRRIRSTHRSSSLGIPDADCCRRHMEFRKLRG

SMILES | Ki [nM]
CN1CCN(c2ccc(-c3n[nH]c4cnc(-c5ccccc5F)nc34)cc2)CC1 [Example 1, 5-(2-Fluorophenyl)-3-[4-(4-methylpiperazin-1-yl)phenyl]-1H-pyrazolo[4,3-d]pyrimidine] | ≤ 100
Cc1ccccc1-c1ncc2[nH]nc(-c3ccc(N4CCN(C)CC4)cc3)c2n1 [Example 2, 3-(4-(4-Methylpiperazin-1-yl)phenyl)-5-o-tolyl-1H-pyrazolo[4,3-d]pyrimidine] | ≤ 100
COc1ccccc1-c1ncc2[nH]nc(-c3ccc(N4CCN(C)CC4)cc3)c2n1 [Example 3, 5-(2-Methoxyphenyl)-3-(4-(4-methylpiperazin-1-yl)phenyl)-1H-pyrazolo[4,3-d]pyrimidine] | ≤ 100
CN1CCN(c2ccc(-c3n[nH]c4cnc(-c5c(F)cccc5Cl)nc34)cc2)CC1 [Example 4, 5-(2-Chloro-6-fluorophenyl)-3-(4-(4-methylpiperazin-1-yl)phenyl)-1H-pyrazolo[4,3-d]pyrimidine] | ≤ 100
CN1CCN(c2ccc(-c3n[nH]c4cnc(-c5cccnc5)nc34)cc2)CC1 [Example 5, 3-(4-(4-Methylpiperazin-1-yl)phenyl)-5-(pyridin-3-yl)-1H-pyrazolo[4,3-d]pyrimidine] | ≤ 100
Cc1cncc(-c2ncc3[nH]nc(-c4ccc(N5CCN(C)CC5)cc4)c3n2)c1 [Example 6, 3-(4-(4-Methylpiperazin-1-yl)phenyl)-5-(5-methylpyridin-3-yl)-1H-pyrazolo[4,3-d]pyrimidine] | ≤ 100
CN1CCN(c2ccc(-c3n[nH]c4cnc(-c5ccc6c(c5)C(=O)NC6)nc34)cc2)CC1 [Example 7, 6-(3-(4-(4-Methylpiperazin-1-yl)phenyl)-1H-pyrazolo[4,3-d]pyrimidin-5-yl)isoindolin-1-one] | ≤ 100
CN1CCN(c2ccc(-c3n[nH]c4cnc(-c5cncc(C(=O)N6CCOCC6)c5)nc34)cc2)CC1 [Example 8, (5-(3-(4-(4-Methylpiperazin-1-yl)phenyl)-1H-pyrazolo[4,3-d]pyrimidin-5-yl)pyridin-3-yl)(morpholino)methanone] | ≤ 100
CNC(=O)c1cncc(-c2ncc3[nH]nc(-c4ccc(N5CCN(C)CC5)cc4)c3n2)c1 [Example 9, N-Methyl-5-(3-(4-(4-methylpiperazin-1-yl)phenyl)-1H-pyrazolo[4,3-d]pyrimidin-5-yl)nicotinamide] | ≤ 100
CN1CCN(c2ccc(-c3n[nH]c4cnc(-c5cccc6c5CCNC6)nc34)cc2)CC1 [Example 10, 5-(3-(4-(4-Methylpiperazin-1-yl)phenyl)-1H-pyrazolo[4,3-d]pyrimidin-5-yl)-1,2,3,4-tetrahydroisoquinoline] | ≤ 100
COc1cccc(F)c1-c1ncc2[nH]nc(-c3ccc(N4CCN(C)CC4)cc3)c2n1 [Example 11, 5-(2-Fluoro-6-methoxyphenyl)-3-(4-(4-methylpiperazin-1-yl)phenyl)-1H-pyrazolo[4,3-d]pyrimidine] | ≤ 100
COc1cccc(F)c1-c1ncc2[nH]nc(-c3ccccc3)c2n1 [Example 12, 5-(2-Fluoro-6-methoxyphenyl)-3-phenyl-1H-pyrazolo[4,3-d]pyrimidine] | ≤ 100
COc1cccc(F)c1-c1ncc2[nH]nc(-c3ccccc3F)c2n1 [Example 13, 5-(2-Fluoro-6-methoxyphenyl)-3-(2-fluorophenyl)-1H-pyrazolo[4,3-d]pyrimidine] | 100 to 500
COc1cccc(F)c1-c1ncc2[nH]nc(-c3cnn(C)c3)c2n1 [Example 14, 5-(2-Fluoro-6-methoxyphenyl)-3-(1-methyl-1H-pyrazol-4-yl)-1H-pyrazolo[4,3-d]pyrimidine] | ≤ 100
COc1cccc(F)c1-c1ncc2[nH]nc(-c3ccncc3)c2n1 [Example 15, 5-(2-Fluoro-6-methoxyphenyl)-3-(pyridin-4-yl)-1H-pyrazolo[4,3-d]pyrimidine] | ≤ 100
COc1cccc(F)c1-c1ncc2[nH]nc(-c3cncnc3)c2n1 [Example 16, 5-(2-Fluoro-6-methoxyphenyl)-3-(pyrimidin-5-yl)-1H-pyrazolo[4,3-d]pyrimidine] | 100 to 500
COc1cccc(F)c1-c1ncc2[nH]nc(-c3ccc(C#N)cc3)c2n1 [Example 17, 4-(5-(2-Fluoro-6-methoxyphenyl)-1H-pyrazolo[4,3-d]pyrimidin-3-yl)benzonitrile] | ≤ 100
COc1cccc(F)c1-c1ncc2[nH]nc(-c3ccc(C(F)(F)F)cc3)c2n1 [Example 18, 5-(2-Fluoro-6-methoxyphenyl)-3-(4-(trifluoromethyl)phenyl)-1H-pyrazolo[4,3-d]pyrimidine] | 100 to 500
COc1cccc(-c2n[nH]c3cnc(-c4c(F)cccc4OC)nc23)c1 [Example 19, 5-(2-Fluoro-6-methoxyphenyl)-3-(3-methoxyphenyl)-1H-pyrazolo[4,3-d]pyrimidine] | ≤ 100

SMILES | Ki [nM]
COc1cccc(F)c1-c1ncc2[nH]nc(-c3ccccc3C)c2n1 [Example 20, 5-(2-Fluoro-6-methoxyphenyl)-3-o-tolyl-1H-pyrazolo[4,3-d]pyrimidine] | 500 to 5000
COc1cccc(F)c1-c1ncc2[nH]nc(-c3ccsc3)c2n1 [Example 21, 5-(2-Fluoro-6-methoxyphenyl)-3-(thiophen-3-yl)-1H-pyrazolo[4,3-d]pyrimidine] | ≤ 100
COc1cccc(F)c1-c1ncc2[nH]nc(-c3ccc(C(=O)N(C)C)cc3)c2n1 [Example 22, 4-(5-(2-Fluoro-6-methoxyphenyl)-1H-pyrazolo[4,3-d]pyrimidin-3-yl)-N,N-dimethylbenzamide] | 100 to 500
COc1cccc(F)c1-c1ncc2[nH]nc(-c3ccc(CN4CCN(C)CC4)cc3)c2n1 [Example 23, 5-(2-Fluoro-6-methoxyphenyl)-3-(4-((4-methylpiperazin-1-yl)methyl)phenyl)-1H-pyrazolo[4,3-d]pyrimidine] | ≤ 100
COc1cccc(F)c1-c1ncc2[nH]nc(-c3ccc(CN4CCOCC4)cc3)c2n1 [Example 24, 4-(4-(5-(2-Fluoro-6-methoxyphenyl)-1H-pyrazolo[4,3-d]pyrimidin-3-yl)benzyl)morpholine] | ≤ 100
COc1cccc(F)c1-c1ncc2[nH]nc(-c3cccc(CN4CCN(C)CC4)c3)c2n1 [Example 25, 5-(2-Fluoro-6-methoxyphenyl)-3-(3-((4-methylpiperazin-1-yl)methyl)phenyl)-1H-pyrazolo[4,3-d]pyrimidine] | ≤ 100
COc1cccc(F)c1-c1ncc2[nH]nc(-c3ccc(N4CCOCC4)cc3)c2n1 [Example 26, 4-(4-(5-(2-Fluoro-6-methoxyphenyl)-1H-pyrazolo[4,3-d]pyrimidin-3-yl)phenyl)morpholine] | ≤ 100
COc1cccc(F)c1-c1ncc2[nH]nc(-c3cccc(N4CCNCC4)c3)c2n1 [Example 27, 5-(2-Fluoro-6-methoxyphenyl)-3-(3-(piperazin-1-yl)phenyl)-1H-pyrazolo[4,3-d]pyrimidine] | ≤ 100
COc1cccc(F)c1-c1ncc2[nH]nc(-c3cccc(N4CCCC4)c3)c2n1 [Example 28, 5-(2-fluoro-6-methoxyphenyl)-3-(3-(pyrrolidin-1-yl)phenyl)-1H-pyrazolo[4,3-d]pyrimidine] | 100 to 500
COc1cccc(F)c1-c1ncc2[nH]nc(-c3cccc(N4CCOCC4)c3)c2n1 [Example 29, 4-(3-(5-(2-Fluoro-6-methoxyphenyl)-1H-pyrazolo[4,3-d]pyrimidin-3-yl)phenyl)morpholine] | ≤ 100
COc1cccc(F)c1-c1ncc2[nH]nc(-c3cccc(N(C)C)c3)c2n1 [Example 30, 3-(5-(2-Fluoro-6-methoxyphenyl)-1H-pyrazolo[4,3-d]pyrimidin-3-yl)-N,N-dimethylaniline] | ≤ 100
COc1cccc(F)c1-c1ncc2[nH]nc(-c3ccc(C(=O)N4CCOCC4)cc3)c2n1 [Example 31, (4-(5-(2-Fluoro-6-methoxyphenyl)-1H-pyrazolo[4,3-d]pyrimidin-3-yl)phenyl)(morpholino)methanone] | ≤ 100
COc1cccc(F)c1-c1ncc2[nH]nc(-c3ccc(C(=O)NC4CCCC4)cc3)c2n1 [Example 32, N-Cyclopentyl-4-(5-(2-fluoro-6-methoxyphenyl)-1H-pyrazolo[4,3-d]pyrimidin-3-yl)benzamide] | ≤ 100
COc1cccc(F)c1-c1ncc2[nH]nc(-c3ccc(C4(N5CCOCC5)CC4)cc3)c2n1 [Example 33, 4-(1-(4-(5-(2-Fluoro-6-methoxyphenyl)-1H-pyrazolo[4,3-d]pyrimidin-3-yl)phenyl)cyclopropyl)morpholine] | 100 to 500
COc1cccc(F)c1-c1ncc2[nH]nc(-c3ccc(CC#N)cc3)c2n1 [Example 34, 2-(4-(5-(2-Fluoro-6-methoxyphenyl)-1H-pyrazolo[4,3-d]pyrimidin-3-yl)phenyl)acetonitrile] | ≤ 100
COc1ccc(-c2n[nH]c3cnc(-c4c(F)cccc4OC)nc23)cc1 [Example 35, 5-(2-Fluoro-6-methoxyphenyl)-3-(4-methoxyphenyl)-1H-pyrazolo[4,3-d]pyrimidine] | ≤ 100
COc1cccc(F)c1-c1ncc2[nH]nc(-c3ccc(F)cc3)c2n1 [Example 36, 5-(2-Fluoro-6-methoxyphenyl)-3-(4-fluorophenyl)-1H-pyrazolo[4,3-d]pyrimidine] | ≤ 100
CCN1CCN(c2ccc(-c3n[nH]c4cnc(-c5c(F)cccc5OC)nc34)cc2)CC1 [Example 37, 3-(4-(4-Ethylpiperazin-1-yl)phenyl)-5-(2-fluoro-6-methoxyphenyl)-1H-pyrazolo[4,3-d]pyrimidine] | ≤ 100
CNC(=O)c1ccc(-c2n[nH]c3cnc(-c4c(F)cccc4OC)nc23)cc1 [Example 38, 4-(5-(2-Fluoro-6-methoxyphenyl)-1H-pyrazolo[4,3-d]pyrimidin-3-yl)-N-methylbenzamide] | ≤ 100
